Data reported in the supplement of paper PMC9663587.

Experiments:
Torin2 = compound: C1=CC(=CC(=C1)N2C(=O)C=CC3=CN=C4C=CC(=CC4=C32)C5=CN=C(C=C5)N)C(F)(F)F [Torin2]
R0-3306 = compound: C1=CC2=C(C=CC(=C2)C=C3C(=O)NC(=NCC4=CC=CS4)S3)N=C1 [R0-3306]
AZD1775 = compound: C=CCn1c(=O)c2cnc(Nc3ccc(N4CCN(C)CC4)cc3)nc2n1-c1cccc(C(C)(C)O)n1 [AZD1775]
[1] = compound: CC(=O)Nc1cccc(-n2c(=O)n(C3CC3)c(=O)c3c(Nc4ccc(I)cc4F)n(C)c(=O)c(C)c32)c1
BSJ-03-123 = compound: CC(=O)c1c(C)c2cnc(Nc3ccc(N4CCN(CCOCCOCCOCCNC(=O)COc5cccc6c5C(=O)N(C5CCC(=O)NC5=O)C6=O)CC4)cn3)nc2n(C2CCCC2)c1=O [BSJ-03-123]
[2] = compound: CC(=O)c1c(C)c2cnc(Nc3ccc(N4CCNCC4)cn3)nc2n(C2CCCC2)c1=O
Ipatasertib/GDC0068 = compound: CC(C)NC[C@@H](C(=O)N1CCN(c2ncnc3c2[C@H](C)C[C@H]3O)CC1)c1ccc(Cl)cc1 [Ipatasertib/GDC0068]
SHP099 = compound: CC1(CCN(CC1)C2=CN=C(C(=N2)N)C3=C(C(=CC=C3)Cl)Cl)N [SHP099]
[3] = compound: CCC1=CN=CN=C1N2CCN(CC2)CC3=NC4=C(N3)C=C(C=C4)C(F)(F)F
[4] = compound: CCN1CCN(Cc2ccc(Nc3ncc(F)c(-c4cc(F)c5nc(C)n(C(C)C)c5c4)n3)nc2)CC1
Luminespib/NVP-AUY922 = compound: CCNC(=O)c1noc(-c2cc(C(C)C)c(O)cc2O)c1-c1ccc(CN2CCOCC2)cc1 [Luminespib/NVP-AUY922]
Neratinib/HKI272 = compound: CCOc1cc2ncc(C#N)c(Nc3ccc(OCc4ccccn4)c(Cl)c3)c2cc1NC(=O)/C=C/CN(C)C [Neratinib/HKI272]
Volasertib/BI6727 = compound: CC[C@@H]1C(=O)N(C)c2cnc(Nc3ccc(C(=O)N[C@H]4CC[C@H](N5CCN(CC6CC6)CC5)CC4)cc3OC)nc2N1C(C)C [Volasertib/BI6727]
[5] = compound: CCc1cnn2c(NCc3ccc[n+]([O-])c3)cc(N3CCCC[C@H]3CCO)nc12
LEE011/Ribociclib = compound: CN(C)C(=O)c1cc2cnc(Nc3ccc(N4CCNCC4)cn3)nc2n1C1CCCC1 [LEE011/Ribociclib]
THZ1 = compound: CN(C)C/C=C/C(=O)Nc1ccc(C(=O)Nc2cccc(Nc3ncc(Cl)c(-c4c[nH]c5ccccc45)n3)c2)cc1 [THZ1]
ABT-737 = compound: CN(C)CC[C@H](CSc1ccccc1)Nc1ccc(S(=O)(=O)NC(=O)c2ccc(N3CCN(Cc4ccccc4-c4ccc(Cl)cc4)CC3)cc2)cc1[N+](=O)[O-] [ABT-737]
Saracatinib/AZD0530 = compound: CN1CCN(CCOc2cc(OC3CCOCC3)c3c(Nc4c(Cl)ccc5c4OCO5)ncnc3c2)CC1 [Saracatinib/AZD0530]
Flavopiridol = compound: CN1CC[C@H](c2c(O)cc(O)c3c(=O)cc(-c4ccccc4Cl)oc23)[C@H](O)C1 [Flavopiridol]
AZD2014 = compound: CNC(=O)c1cccc(-c2ccc3c(N4CCOC[C@@H]4C)nc(N4CCOC[C@@H]4C)nc3n2)c1 [AZD2014]
[6] = compound: CO[C@@H](C)Cn1c(=O)n(C)c2cnc3ccc(-c4cncc(C(C)(C)O)c4)cc3c21
Cabozantinib = compound: COc1cc2nccc(Oc3ccc(NC(=O)C4(C(=O)Nc5ccc(F)cc5)CC4)cc3)c2cc1OC [Cabozantinib]
[7] = compound: COc1ccc2c(c1)[C@]1(C[C@H]1c1ccc3c(/C=C/c4ccc(CN5C[C@@H](C)O[C@@H](C)C5)cc4)n[nH]c3c1)C(=O)N2
Doxorubicin = compound: COc1cccc2c1C(=O)c1c(O)c3c(c(O)c1C2=O)C[C@@](O)(C(=O)CO)C[C@@H]3O[C@H]1C[C@H](N)[C@H](O)[C@H](C)O1 [Doxorubicin]
Taselisib/GDC0032 = compound: Cc1nc(-c2cn3c(n2)-c2ccc(-c4cnn(C(C)(C)C(N)=O)c4)cc2OCC3)n(C(C)C)n1 [Taselisib/GDC0032]
Alpelisib/BYL719 = compound: Cc1nc(NC(=O)N2CCC[C@H]2C(N)=O)sc1-c1ccnc(C(C)(C)C(F)(F)F)c1 [Alpelisib/BYL719]
Dasatinib = compound: Cc1nc(Nc2ncc(C(=O)Nc3c(C)cccc3Cl)s2)cc(N2CCN(CCO)CC2)n1 [Dasatinib]
AZD7762 = compound: NC(=O)Nc1cc(-c2cccc(F)c2)sc1C(=O)N[C@H]1CCCNC1 [AZD7762]
AZD5363 = compound: NC1(C(=O)N[C@@H](CCO)c2ccc(Cl)cc2)CCN(c2nc[nH]c3nccc2-3)CC1 [AZD5363]
Vorinostat = compound: O=C(CCCCCCC(=O)Nc1ccccc1)NO [Vorinostat]
Olaparib/AZD2281 = compound: O=C(c1cc(Cc2n[nH]c(=O)c3ccccc23)ccc1F)N1CCN(C(=O)C2CC2)CC1 [Olaparib/AZD2281]
[8] = compound: CCCCOc1c(C(=O)c2c(F)cc(C)cc2F)c[nH]c2nncc1-2
THZ-P1-2 = compound: CN(C)C/C=C/C(=O)NC1=CC=C(C=C1)C(=O)NC2=CC=CC(=C2)NC3=NC=NC(=C3)C4=CNC5=CC=CC=C54 [THZ-P1-2]
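Also: breast cancer and non-malignant breast epithelial cell lines, Deep Dye Drop or Dye Drop imaging, nine half-log doses, GR normalized to time-zero plates and DMSO-only controls.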

Cell Line | GR50, 72 h (Torin2) [µM] | GR50, 72 h (R0-3306) [µM] | GR50, 72 h (AZD1775) [µM] | GR50, 72 h [1] [µM] | GR50, 72 h (BSJ-03-123) [µM] | GR50, 72 h [2] [µM] | GR50, 72 h (Ipatasertib/GDC0068) [µM] | GR50, 72 h (SHP099) [µM] | GR50, 72 h [3] [µM] | GR50, 72 h [4] [µM] | GR50, 72 h (Luminespib/NVP-AUY922) [µM] | GR50, 72 h (Neratinib/HKI272) [µM] | GR50, 72 h (Volasertib/BI6727) [µM] | GR50, 72 h [5] [µM] | GR50, 72 h (LEE011/Ribociclib) [µM] | GR50, 72 h (THZ1) [µM] | GR50, 72 h (ABT-737) [µM] | GR50, 72 h (Saracatinib/AZD0530) [µM] | GR50, 72 h (Flavopiridol) [µM] | GR50, 72 h (AZD2014) [µM] | GR50, 72 h [6] [µM] | GR50, 72 h (Cabozantinib) [µM] | GR50, 72 h [7] [µM] | GR50, 72 h (Doxorubicin) [µM] | GR50, 72 h (Taselisib/GDC0032) [µM] | GR50, 72 h (Alpelisib/BYL719) [µM] | GR50, 72 h (Dasatinib) [µM] | GR50, 72 h (AZD7762) [µM] | GR50, 72 h (AZD5363) [µM] | GR50, 72 h (Vorinostat) [µM] | GR50, 72 h (Olaparib/AZD2281) [µM] | GR50, 72 h [8] [µM] | GR50, 72 h (THZ-P1-2) [µM]
MDAMB361 | 0.00507 | 5.8 | 0.00493 | > 1 | 0.297 | 0.0196 | 0.314 | > 10 | 7.23 | 0.00535 | 0.00714 | 0.152 | 0.00352 | 0.0118 | < 0.001 | 0.00852 | > 10 | 0.426 | 0.0887 | < 0.001 | < 0.001 | > 10 | 0.00573 | 0.0123 | 0.00177 | 0.223 | 0.268 | 0.00768 | 0.654 | 0.762 | 4.83 |  | 
MDAMB436 | 0.0412 | 4.65 | 0.175 | > 1 | 7.25 | > 3.16 | > 10 | > 10 | 4.75 | 2.1 | 0.00391 | 0.715 | 0.00518 | 0.0143 | > 10 | 0.135 | > 10 | > 10 | 0.159 | > 10 |  | 6.5 | 0.00237 | 0.00761 | 4.66 | > 10 | > 10 | 0.04 | > 10 | 2.68 | 1.53 | 1.02 | 4.3
MDAMB453 | 0.0086 | 5.95 | 0.112 | 0.0339 | 1.8 | 0.0428 | 0.542 | > 10 | 4.29 | 0.00577 | 0.0033 | 0.0361 | 0.00726 | 0.0114 | 0.0388 | 0.0116 | 5.97 | 8.37 | 0.134 | 0.00364 | < 0.001 | 9.71 | 0.00348 | 0.00587 | 0.00346 | 0.538 | > 10 | 0.0116 | 1.55 | 0.944 | 1.67 | 0.811 | 
PDX1328 | 0.00494 |  | 0.00554 | > 1 |  | 0.168 | > 10 | > 10 | > 10 | 0.0288 | 0.00288 | 0.264 | 0.00437 | 0.0148 | 0.349 | 0.0106 | 1.56 | 0.987 | 0.181 |  | 0.00195 | 6.29 | 0.00595 | 0.024 | 0.0544 | 1.57 | 0.0279 | 0.0284 | > 10 | 0.687 | > 10 | > 10 | > 10
SUM185PE | 0.0124 | > 10 | 4.52 | > 1 | > 10 | > 3.16 | 6.34 | > 10 | 3.03 | 9.37 | 0.00341 | 0.537 | 0.0238 | 0.0261 | > 10 | 0.0143 | 0.927 | 1.65 | 0.149 | 0.00637 | 0.00357 | 1.71 |  | > 3.16 | 0.00177 | 0.318 | 0.0196 | 0.0985 | 8.7 | 6.86 | > 10 | > 10 | 5.83
UACC893 | 0.00854 | 9.24 | 0.236 | 0.0212 | 1.46 | 0.0209 | 0.223 | > 10 | 6.76 | 0.00967 | 0.00468 | 0.00274 | 0.00357 | 0.017 | 0.0051 | 0.0175 | 9.97 | 4.54 | 0.117 | < 0.001 | 0.00107 | > 10 | 0.0124 | 0.0106 | 0.00346 | 0.419 | > 10 | 0.299 | 0.0291 | 3.72 | > 10 | 0.0897 | 
ZR7530 | 0.0216 | 6.17 | 1.91 | 0.0361 | 0.58 | 0.0889 | 2.4 | > 10 | 5.13 | 0.00886 | 0.00303 | 0.000681 | 0.00621 | 0.0163 | 0.692 | 0.0259 | > 10 | 0.533 | 0.192 | 0.00146 |  |  | 0.00327 | 0.0148 | 0.0102 | 0.246 | 0.372 | 1.12 | 0.192 | 0.844 | > 10 | 0.152 | 1.64
